Here are results for four molecules from publication PMC6757289, “Design and Characterization of SGK3-PROTAC1, an Isoform Specific SGK3 Kinase PROTAC Degrader” (ACS Chemical Biology, 2019).

Read-outs that look alike come from different tables or passages of the source.

Common to all, as to experiment: kinase profiling panel
What all share (format): biochemical
Holding throughout (conditions): read-out: % Activity Remaining

For one experiment, the target named is T1, Aurora A (Homo sapiens, UniProt O14965).
T1 sequence (O14965 1-403): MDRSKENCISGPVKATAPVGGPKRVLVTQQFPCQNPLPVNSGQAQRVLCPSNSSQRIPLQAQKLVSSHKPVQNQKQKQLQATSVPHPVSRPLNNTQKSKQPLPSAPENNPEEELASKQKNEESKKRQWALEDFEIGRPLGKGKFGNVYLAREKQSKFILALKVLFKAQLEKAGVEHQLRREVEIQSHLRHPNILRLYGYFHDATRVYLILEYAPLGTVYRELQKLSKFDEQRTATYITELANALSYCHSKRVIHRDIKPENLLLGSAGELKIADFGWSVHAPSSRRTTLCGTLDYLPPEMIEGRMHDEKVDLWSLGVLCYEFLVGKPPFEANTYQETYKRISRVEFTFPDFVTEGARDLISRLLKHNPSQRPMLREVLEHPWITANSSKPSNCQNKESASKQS
From the text: (§1) Protein kinase profiling against a Dundee panel of 140 protein kinases was undertaken at the International Centre for Protein Kinase Profiling. The result for each kinase was presented as a mean kinase activity of the reaction taken in triplicate relative to a control sample treated with DMSO. Assay conditions and abbreviations are available at http://www.kinase-screen.mrc.ac.uk.

The next experiment deals with CAMK1 (Homo sapiens, UniProt Q14012).
Sequence of CAMK1 (Q14012 whole entry): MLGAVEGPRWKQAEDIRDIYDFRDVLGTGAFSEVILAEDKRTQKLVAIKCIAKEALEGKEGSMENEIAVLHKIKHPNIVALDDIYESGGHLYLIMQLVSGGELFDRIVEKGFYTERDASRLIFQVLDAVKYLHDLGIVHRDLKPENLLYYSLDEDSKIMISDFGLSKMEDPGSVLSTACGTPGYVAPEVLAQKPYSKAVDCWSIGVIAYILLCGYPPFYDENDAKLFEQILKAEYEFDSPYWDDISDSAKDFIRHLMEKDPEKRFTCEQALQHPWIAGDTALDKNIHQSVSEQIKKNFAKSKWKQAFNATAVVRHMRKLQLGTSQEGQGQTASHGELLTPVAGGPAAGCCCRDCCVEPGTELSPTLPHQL
Excerpt: as §1

For the next experiment, the target named is T2, DYRK2 (Homo sapiens, UniProt Q92630).
T2 sequence (Q92630 1-601): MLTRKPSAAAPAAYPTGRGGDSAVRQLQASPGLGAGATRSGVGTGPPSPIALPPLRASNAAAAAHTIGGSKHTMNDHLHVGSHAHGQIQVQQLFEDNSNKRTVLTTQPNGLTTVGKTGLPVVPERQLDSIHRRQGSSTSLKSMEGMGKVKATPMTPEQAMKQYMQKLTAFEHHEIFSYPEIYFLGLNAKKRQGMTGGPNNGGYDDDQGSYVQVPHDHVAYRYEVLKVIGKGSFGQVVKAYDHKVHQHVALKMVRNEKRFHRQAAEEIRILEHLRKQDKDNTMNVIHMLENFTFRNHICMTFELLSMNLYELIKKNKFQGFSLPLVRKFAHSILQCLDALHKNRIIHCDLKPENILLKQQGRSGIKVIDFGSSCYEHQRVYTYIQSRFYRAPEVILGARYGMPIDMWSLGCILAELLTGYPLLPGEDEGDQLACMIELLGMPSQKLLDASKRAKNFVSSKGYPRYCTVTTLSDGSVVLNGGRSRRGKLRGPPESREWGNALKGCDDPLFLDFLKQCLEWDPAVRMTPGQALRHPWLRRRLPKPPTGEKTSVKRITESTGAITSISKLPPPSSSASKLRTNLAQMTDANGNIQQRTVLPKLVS
Excerpt: as §1

A further experiment deals with T3, NEK2a (Homo sapiens, UniProt P51955).
T3 sequence (P51955 1-445): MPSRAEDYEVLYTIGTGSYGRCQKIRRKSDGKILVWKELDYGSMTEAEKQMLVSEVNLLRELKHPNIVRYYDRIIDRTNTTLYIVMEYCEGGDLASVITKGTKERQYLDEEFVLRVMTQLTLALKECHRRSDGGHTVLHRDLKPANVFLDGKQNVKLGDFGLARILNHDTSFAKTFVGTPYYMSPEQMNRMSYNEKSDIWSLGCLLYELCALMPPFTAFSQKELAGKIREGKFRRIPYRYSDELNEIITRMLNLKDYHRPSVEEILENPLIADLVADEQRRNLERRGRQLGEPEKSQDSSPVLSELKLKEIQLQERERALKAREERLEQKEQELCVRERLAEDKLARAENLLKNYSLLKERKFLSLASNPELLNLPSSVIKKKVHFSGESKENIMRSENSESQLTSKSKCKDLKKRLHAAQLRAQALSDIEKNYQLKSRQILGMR
Excerpt: as §1

In the next experiment the target is T4, PRAK (Homo sapiens, UniProt Q8IW41).
T4 sequence (Q8IW41 1-473): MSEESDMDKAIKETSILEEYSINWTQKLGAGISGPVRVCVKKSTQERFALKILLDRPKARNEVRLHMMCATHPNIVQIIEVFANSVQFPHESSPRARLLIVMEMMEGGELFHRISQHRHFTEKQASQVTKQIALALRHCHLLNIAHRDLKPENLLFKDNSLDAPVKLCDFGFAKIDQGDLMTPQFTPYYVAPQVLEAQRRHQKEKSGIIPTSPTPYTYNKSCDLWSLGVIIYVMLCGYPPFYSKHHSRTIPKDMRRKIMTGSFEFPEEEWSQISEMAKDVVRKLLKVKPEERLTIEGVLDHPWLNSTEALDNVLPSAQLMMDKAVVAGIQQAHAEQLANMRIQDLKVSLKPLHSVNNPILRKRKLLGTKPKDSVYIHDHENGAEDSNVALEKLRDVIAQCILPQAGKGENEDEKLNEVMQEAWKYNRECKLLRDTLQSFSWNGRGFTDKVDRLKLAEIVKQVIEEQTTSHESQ
Excerpt: as §1

Another experiment deals with T5, TSSK1 (Homo sapiens, UniProt Q9BXA7).
T5 sequence (Q9BXA7 1-367): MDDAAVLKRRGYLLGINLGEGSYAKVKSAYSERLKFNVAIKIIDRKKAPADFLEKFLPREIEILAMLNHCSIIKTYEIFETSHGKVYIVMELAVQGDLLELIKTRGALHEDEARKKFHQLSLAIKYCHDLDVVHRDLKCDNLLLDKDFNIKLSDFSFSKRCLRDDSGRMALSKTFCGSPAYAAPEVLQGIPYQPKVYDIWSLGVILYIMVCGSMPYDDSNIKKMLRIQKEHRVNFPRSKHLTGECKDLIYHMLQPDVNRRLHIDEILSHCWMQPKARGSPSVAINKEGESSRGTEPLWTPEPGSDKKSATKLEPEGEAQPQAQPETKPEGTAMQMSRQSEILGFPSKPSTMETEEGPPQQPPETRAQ
Excerpt: as §1

Another experiment concerns the target T6, p38 delta MAPK (Homo sapiens, UniProt O15264).
T6 sequence (O15264 1-365): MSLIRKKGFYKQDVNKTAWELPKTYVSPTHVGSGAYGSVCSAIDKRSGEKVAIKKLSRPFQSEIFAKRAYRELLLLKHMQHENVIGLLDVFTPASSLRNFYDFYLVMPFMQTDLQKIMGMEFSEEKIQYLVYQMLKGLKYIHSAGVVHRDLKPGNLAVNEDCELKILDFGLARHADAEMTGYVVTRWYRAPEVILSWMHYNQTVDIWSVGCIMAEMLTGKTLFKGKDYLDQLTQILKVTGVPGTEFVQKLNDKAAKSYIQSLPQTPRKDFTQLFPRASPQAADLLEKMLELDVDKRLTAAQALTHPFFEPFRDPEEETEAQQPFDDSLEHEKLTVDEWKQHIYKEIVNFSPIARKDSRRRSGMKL
Excerpt: as §1

The term remaining activity denotes the signal under treatment as a percentage of the control signal. Consider `COc1ccc(Cl)c(S(=O)(=O)Nc2ccc(-c3nc(OC[C@H]4CNCCO4)c4c(C)n[nH]c4n3)cc2)c1` [290-R, reference compound], for which the remaining activity at 1 µM on Aurora A turned out to be 108%; at CAMK1, 3%; on DYRK2 it was 100%; on NEK2a it was 74%; on PRAK, 78%; at TSSK1 it was 98%. In addition, the remaining activity at 1 µM on p38 delta MAPK stood at 111%.
As for `Cc1ccc(F)c(S(=O)(=O)Nc2ccc(-c3nc(OC[C@H]4CNCCO4)c4cn[nH]c4n3)cc2)c1` [308-R, reference compound], the remaining activity at 1 µM turned out to be 109% at Aurora A; 22% on CAMK1; 74% on DYRK2; 67% at NEK2a; 86% on PRAK; 94% at TSSK1. Further, on p38 delta MAPK, the remaining activity at 1 µM came to 126%.
Consider `Cc1ccc(F)c(S(=O)(=O)Nc2ccc(-c3nc(OC[C@H]4CN(CCCCCCOCCOCCOCC(=O)N[C@H](C(=O)N5C[C@H](O)C[C@H]5C(=O)NCc5ccc(-c6scnc6C)cc5)C(C)(C)C)CCO4)c4cn[nH]c4n3)cc2)c1` [SGK3-PROTAC1], for which the remaining activity at 1 µM on Aurora A (1 µM) worked out at 90%; on CAMK1 (1 µM), 86%; at DYRK2 (1 µM) it was 102%; at NEK2a (1 µM), 162%; on PRAK (1 µM), 115%; on TSSK1 (1 µM), 115%. Also, the remaining activity at 1 µM at p38 delta MAPK (1 µM) amounted to 103%.
With `Cc1ccc(F)c(S(=O)(=O)Nc2ccc(-c3nc(OC[C@H]4CN(CCCCCCOCCOCCOCC(=O)N[C@H](C(=O)N5C[C@@H](O)C[C@H]5C(=O)NCc5ccc(-c6scnc6C)cc5)C(C)(C)C)CCO4)c4cn[nH]c4n3)cc2)c1` [cisSGK3-PROTAC1], the remaining activity at 1 µM turned out to be 91% on Aurora A (1 µM); 105% at CAMK1 (1 µM); 97% on DYRK2 (1 µM); 139% at NEK2a (1 µM); 119% on PRAK (1 µM); 113% on TSSK1 (1 µM). Also, the remaining activity at 1 µM at p38 delta MAPK (1 µM) was determined as 121%.
